In one experiment the target is T1, human TNFR2 ECD protein (Homo sapiens, UniProt P20333).
T1 construct: HRV 3C protease cleavage site (C); 6His (C, cleaved yes); made in house; host or cells: Sf21 insect cells (baculovirus), secreted
T1 sequence (P20333 23-257): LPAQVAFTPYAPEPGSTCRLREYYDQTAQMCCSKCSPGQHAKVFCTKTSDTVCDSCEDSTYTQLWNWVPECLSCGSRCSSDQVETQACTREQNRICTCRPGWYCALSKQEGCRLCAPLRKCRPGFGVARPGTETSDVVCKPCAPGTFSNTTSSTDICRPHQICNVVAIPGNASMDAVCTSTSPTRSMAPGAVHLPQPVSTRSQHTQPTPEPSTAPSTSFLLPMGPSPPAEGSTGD
The experiment is described as follows: SPR off-target binding (selectivity) to human TNFR2 ECD. In outline: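 Peptide binding kinetics read by SPR in HEPES pH 7.4 running buffer with 2% DMSO, with TNFR2 ECD tested in parallel for off-target binding. Receptor ECDs, insect-cell expressed and biotinylated at C-terminal avi-tag, were captured via streptavidin. KA derived from association and dissociation rate constants.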

Experiment [1] deals with T2, human soluble TNFR1 (sTNFR1) (Homo sapiens, UniProt P19438).
T2 construct: made in house; host or cells: Sf21 (baculovirus)
T2 sequence (P19438 with tags, fused parts or gaps): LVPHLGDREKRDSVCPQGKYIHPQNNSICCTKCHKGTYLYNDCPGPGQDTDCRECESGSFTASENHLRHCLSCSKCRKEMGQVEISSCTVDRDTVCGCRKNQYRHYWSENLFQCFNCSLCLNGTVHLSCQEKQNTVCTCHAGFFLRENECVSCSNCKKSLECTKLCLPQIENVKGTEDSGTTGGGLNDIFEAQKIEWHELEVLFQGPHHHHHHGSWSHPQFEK
The experiment can be described thus: Human sTNFR1-peptide displacement assay (LanthaScreen Eu TR-FRET binding assay). In outline: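 Readout is the 665/615 nm TR-FRET ratio (Eu anti-His donor, streptavidin-Alexa647 acceptor), normalized to DMSO and saturating displacer, fit by Morrison-based five-parameter logistic for Kd^app. His-tagged sTNFR1 (1-211) prebound to 100 nM biotinylated peptide SEQ ID NO.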
For orientation: Time-resolved FRET reads energy transfer from a long-lived donor to a nearby acceptor.

Numbered stars: 1 amine (or outer) side, 2 acyl side, 3 side chain; on linkers, the order of the positions; unused ones are H or OH. Bridge positions count the residues as written; N and C are the ends. Square brackets hold non-standard residues; d marks the D form. Peptide text beside a SMILES is read from it. * marks the point of attachment. Trp(βS-Me,7-OMe) = COc1cccc2c([C@H](C)[C@H](N)C(=O)O)c[nH]c12; X24 = O=C(O)c1ccc([C@@H](O)[C@H](N[*:1])C(=O)[*:2])cc1; X28 = NC(=O)c1ccc([C@H](O)[C@H](N[*:1])C(=O)[*:2])cc1; Trp(7-CN) = N#Cc1cccc2c(C[C@H](N)C(=O)O)c[nH]c12; Trp(7-Cl) = N[C@@H](Cc1c[nH]c2c(Cl)cccc12)C(=O)O; X29 = NC(=O)Cc1cccc(C[C@H](N[*:1])C(=O)[*:2])c1; Phe(4-CONH2) = NC(=O)c1ccc(C[C@H](N)C(=O)O)cc1; Phe(4-COOH) = N[C@@H](Cc1ccc(C(=O)O)cc1)C(=O)O; Trp(7-aza) = N[C@@H](Cc1c[nH]c2ncccc12)C(=O)O; X3 = C[C@H](c1ccncc1)[C@H](N[*:1])C(=O)[*:2]; dPro(4S-NH2) = N[C@@H]1CN[C@@H](C(=O)O)C1; Pip(5R-OH) = O=C(O)[C@@H]1CC[C@@H](O)CN1; X1 = O=C([C@@H]1CC[C@H](N[*:1])C1)[*:2]; X19 = O=C([C@H](Cc1ccncn1)N[*:1])[*:2]; Gly(N(CH2)3COOH) = O=C(O)CCCNCC(=O)O; Pip(4-aza) = O=C(O)[C@@H]1CNCCN1; 4Pal = N[C@@H](Cc1ccncc1)C(=O)O; NMeE = CN[C@@H](CCC(=O)O)C(=O)O; dHyp = O=C(O)[C@H]1C[C@H](O)CN1; Pip = O=C(O)[C@@H]1CCCCN1; αMeS = C[C@](N)(CO)C(=O)O; Nle = CCCC[C@H](N)C(=O)O; Ethyl(2-NH2) = NCC*; Sar = CNCC(=O)O; X22 = C1CC1C*

As to `CCCC[C@@H]1NC(=O)CSC[C@@H](C(N)=O)NC(=O)[C@H]([C@@H](C)c2c[nH]c3c(OC)cccc23)NC(=O)CN(C)C(=O)[C@H](Cc2ccc(O)cc2)NC(=O)[C@H](Cc2ccc(C(=O)O)cc2)NC(=O)[C@](C)(CO)NC(=O)[C@H](Cc2c[nH]c3c(Cl)cccc23)NC(=O)[C@H](Cc2ccncc2)NC(=O)[C@H](CC(N)=O)NC(=O)[C@H](CCC(=O)O)N(C)C(=O)[C@H](Cc2c[nH]c3ncccc23)NC(=O)[C@H](CO)NC(=O)[C@H]([C@H](C)c2ccncc2)NC1=O` [SEQ ID NO. 143] ({CH2CO}-[Nle][X3]S[Trp(7-aza)][NMeE]N[4Pal][Trp(7-Cl)][αMeS][Phe(4-COOH)]Y[Sar][Trp(βS-Me,7-OMe)]C-NH2; thioether N-14), the dissociation constant Kd (in general, a measure of binding affinity in units of concentration) at human TNFR2 ECD protein is greater than 1000 nM; in experiment [1], 0.21 nM. Moreover, the IC50 (commonly the concentration that gives 50% inhibition) in experiment [1] was found to be 0.4 nM.
As for `CCCC[C@@H]1NC(=O)[C@@H]2CC[C@@H](C2)NC(=O)[C@H]([C@@H](C)c2c[nH]c3c(OC)cccc23)NC(=O)CN(C)C(=O)[C@H](Cc2ccc(O)cc2)NC(=O)[C@H](Cc2ccc(C(N)=O)cc2)NC(=O)[C@](C)(CO)NC(=O)[C@H](Cc2c[nH]c3c(Cl)cccc23)NC(=O)[C@H](Cc2ccncc2)NC(=O)[C@H](CC(N)=O)NC(=O)[C@H]2C[C@H](N)CN2C(=O)[C@H](Cc2c[nH]c3ccccc23)NC(=O)[C@@H]2CC[C@@H](O)CN2C(=O)[C@H](Cc2ccncc2)NC1=O` [SEQ ID NO. 144] (cyclo([4Pal][Trp(7-Cl)][αMeS][Phe(4-CONH2)]Y[Sar][Trp(βS-Me,7-OMe)][X1][Nle][4Pal][Pip(5R-OH)]W[dPro(4S-NH2)]N)), the Kd at human TNFR2 ECD protein is greater than 1000 nM; in experiment [1], 0.07 nM.
The corresponding values for `COc1cccc2c([C@H](C)[C@@H]3NC(=O)CN(C)C(=O)[C@H](Cc4ccc(C(=O)O)cc4)NC(=O)[C@H](Cc4ccc(C(N)=O)cc4)NC(=O)[C@](C)(CO)NC(=O)[C@H](Cc4c[nH]c5c(Cl)cccc45)NC(=O)[C@H](Cc4ccc(C(=O)O)cc4)NC(=O)[C@H](CC(N)=O)NC(=O)[C@H]4C[C@H](O)CN4C(=O)[C@H](Cc4c[nH]c5ncccc45)NC(=O)[C@@H]4CC[C@@H](O)CN4C(=O)[C@H](Cc4ccncc4)NC(=O)[C@H](COCCN)NC(=O)[C@@H]4CC[C@@H](C4)NC3=O)c[nH]c12` [SEQ ID NO. 148] (cyclo([4Pal][Pip(5R-OH)][Trp(7-aza)][dHyp]N[Phe(4-COOH)][Trp(7-Cl)][αMeS][Phe(4-CONH2)][Phe(4-COOH)][Sar][Trp(βS-Me,7-OMe)][X1]S(Ethyl(2-NH2)))) are greater than 1000 nM and 0.9 nM.
As for `COc1cccc2c([C@H](C)[C@@H]3NC(=O)CN(C)C(=O)[C@H](Cc4ccc(C(=O)O)cc4)NC(=O)[C@H](Cc4ccc(C(N)=O)cc4)NC(=O)[C@](C)(CO)NC(=O)[C@H](Cc4c[nH]c5c(C#N)cccc45)NC(=O)[C@H](Cc4ccc(C(=O)O)cc4)NC(=O)[C@H](CC(N)=O)NC(=O)[C@H]4C[C@H](O)CN4C(=O)[C@H](Cc4c[nH]c5ncccc45)NC(=O)[C@@H]4CC[C@@H](O)CN4C(=O)[C@H](Cc4ccncc4)NC(=O)[C@H](COCC4CC4)NC(=O)[C@@H]4CC[C@@H](C4)NC3=O)c[nH]c12` [SEQ ID NO. 149] (cyclo([4Pal][Pip(5R-OH)][Trp(7-aza)][dHyp]N[Phe(4-COOH)][Trp(7-CN)][αMeS][Phe(4-CONH2)][Phe(4-COOH)][Sar][Trp(βS-Me,7-OMe)][X1]S(X22))), the Kd was greater than 1000 nM at human TNFR2 ECD protein and 0.21 nM in experiment [1].
For the compound `CCCC[C@@H]1NC(=O)[C@@H]2CC[C@@H](C2)NC(=O)[C@H]([C@@H](C)c2c[nH]c3c(OC)cccc23)NC(=O)CN(C)C(=O)[C@H](Cc2cccc(CC(N)=O)c2)NC(=O)[C@H](Cc2ccc(C(=O)O)cc2)NC(=O)[C@](C)(CO)NC(=O)[C@H](Cc2c[nH]c3c(Cl)cccc23)NC(=O)[C@H](Cc2ccncc2)NC(=O)[C@H](CC(N)=O)NC(=O)[C@H](CCC(=O)O)N(C)C(=O)[C@H](Cc2c[nH]c3ccccc23)NC(=O)[C@@H]2CNCCN2C(=O)[C@H](Cc2ccncc2)NC1=O` [SEQ ID NO. 153] (cyclo([4Pal][Trp(7-Cl)][αMeS][Phe(4-COOH)][X29][Sar][Trp(βS-Me,7-OMe)][X1][Nle][4Pal][Pip(4-aza)]W[NMeE]N)), the Kd is greater than 1000 nM on human TNFR2 ECD protein and 0.23 nM in experiment [1].
On the same counts, the results for `CCCC[C@@H]1NC(=O)[C@@H]2CC[C@@H](C2)NC(=O)[C@H]([C@@H](C)c2c[nH]c3c(OC)cccc23)NC(=O)CN(C)C(=O)[C@H]([C@H](O)c2ccc(C(=O)O)cc2)NC(=O)[C@H]([C@@H](O)c2ccc(C(N)=O)cc2)NC(=O)[C@](C)(CO)NC(=O)[C@H](Cc2c[nH]c3c(C#N)cccc23)NC(=O)[C@H](Cc2ccncc2)NC(=O)[C@H](CC(N)=O)NC(=O)[C@H]2C[C@H](O)CN2C(=O)[C@H](Cc2c[nH]c3ccccc23)NC(=O)[C@@H]2CC[C@@H](O)CN2C(=O)[C@H](Cc2ccncc2)NC1=O` [SEQ ID NO. 155] (cyclo([4Pal][Trp(7-CN)][αMeS][X28][X24][Sar][Trp(βS-Me,7-OMe)][X1][Nle][4Pal][Pip(5R-OH)]W[dHyp]N)) are greater than 1000 nM and 0.1 nM.
For `CCCC[C@@H]1NC(=O)CSC[C@@H](C(N)=O)NC(=O)[C@H]([C@@H](C)c2c[nH]c3c(OC)cccc23)NC(=O)CN(C)C(=O)[C@H](Cc2ccc(O)cc2)NC(=O)[C@H](Cc2ccc(C(=O)O)cc2)NC(=O)[C@](C)(CO)NC(=O)[C@H](Cc2c[nH]c3c(Cl)cccc23)NC(=O)[C@H](Cc2ccncc2)NC(=O)[C@H](CC(N)=O)NC(=O)CN(CCCC(=O)O)C(=O)[C@H](Cc2c[nH]c3ncccc23)NC(=O)[C@@H]2CCCCN2C(=O)[C@H](Cc2ccncc2)NC1=O` [SEQ ID NO. 157] ({CH2CO}-[Nle][4Pal][Pip][Trp(7-aza)][Gly(N(CH2)3COOH)]N[4Pal][Trp(7-Cl)][αMeS][Phe(4-COOH)]Y[Sar][Trp(βS-Me,7-OMe)]C-NH2; thioether N-14), the dissociation constant Kd at human TNFR2 ECD protein was greater than 1000 nM. In experiment [1], the IC50 stood at 0.72 nM and the Kd came out at 0.64 nM.
As to `CCCC[C@@H]1NC(=O)[C@@H]2CC[C@@H](C2)NC(=O)[C@H]([C@@H](C)c2c[nH]c3c(OC)cccc23)NC(=O)CN(C)C(=O)[C@H](Cc2ccc(C(=O)O)cc2)NC(=O)[C@H](Cc2ccc(C(N)=O)cc2)NC(=O)[C@](C)(CO)NC(=O)[C@H](Cc2c[nH]c3c(Cl)cccc23)NC(=O)[C@H](Cc2ccncn2)NC(=O)[C@H](CC(N)=O)NC(=O)[C@H]2C[C@H](O)CN2C(=O)[C@H](Cc2c[nH]c3ncccc23)NC(=O)[C@@H]2CC[C@@H](O)CN2C(=O)[C@H](Cc2ccncc2)NC1=O` [SEQ ID NO. 159] (cyclo([4Pal][Pip(5R-OH)][Trp(7-aza)][dHyp]N[X19][Trp(7-Cl)][αMeS][Phe(4-CONH2)][Phe(4-COOH)][Sar][Trp(βS-Me,7-OMe)][X1][Nle])), the Kd on human TNFR2 ECD protein was greater than 1000 nM; in experiment [1], 0.12 nM.
Take `CCCC[C@@H]1NC(=O)[C@@H]2CC[C@@H](C2)NC(=O)[C@H]([C@@H](C)c2c[nH]c3c(OC)cccc23)NC(=O)CN(C)C(=O)[C@H](Cc2ccc(O)cc2)NC(=O)[C@H](Cc2ccc(C(=O)O)cc2)NC(=O)[C@](C)(CO)NC(=O)[C@H](Cc2c[nH]c3c(Cl)cccc23)NC(=O)[C@H](Cc2ccncc2)NC(=O)[C@H](CC(N)=O)NC(=O)[C@H]2C[C@H](N)CN2C(=O)[C@H](Cc2c[nH]c3ccccc23)NC(=O)[C@@H]2CNCCN2C(=O)[C@H](Cc2ccncc2)NC1=O` [SEQ ID NO. 161] (cyclo([4Pal][Trp(7-Cl)][αMeS][Phe(4-COOH)]Y[Sar][Trp(βS-Me,7-OMe)][X1][Nle][4Pal][Pip(4-aza)]W[dPro(4S-NH2)]N)): the Kd at human TNFR2 ECD protein is greater than 1000 nM; in experiment [1], 0.09 nM.

The values above are taken from patent publication US20240287138A1, “CYCLIC PEPTIDES FOR INHIBITING TNF RECEPTOR 1 ACTIVITY” (Merck Sharp & Dohme LLC, priority 2023, published 2024).
